Molecules are shown by their SMILES. Values joined by “and” are separate entries in the source; they are usually repeats but may differ in a detail not shown here. Identical values can stand only once.

For this assay, the system named is CD2F1 mice, P1798 lymphosarcoma sc, tumor weight T/C. The assay is described as follows: NCI In Vivo Anticancer Drug Screen. Data for tumor model P1798 Lymphosarcoma (subcutaneous) in CD2F1 (CDF1) mice. The following applies: higher = larger tumour. As to the method:
The antitumor activity of compounds was measured in mice bearing transplantable tumors. Survival or tumor size were measured and the results are expressed as the measurement made in the treated group (T) divided by the measurement made in the vehicle treated control group (C). The tumor model used in this assay is P1798 Lymphosarcoma (subcutaneous) in CD2F1 (CDF1) mice

The mark [1] stands for this setting: endpoint: mean tumor weight, dose: 12.5 mg/kg/injection, schedule: Q01DX005 (sc), vehicle: steriod suspending solution.
Setting [2] is: endpoint: mean tumor weight, dose: 12.5 mg/kg/injection, schedule: Q02DX010 (sc), vehicle: steriod suspending solution.
Setting [3] is: endpoint: mean tumor weight, dose: 25.0 mg/kg/injection, schedule: Q01DX005 (sc), vehicle: steriod suspending solution.
[4] abbreviates: endpoint: mean tumor weight, dose: 25.0 mg/kg/injection, schedule: Q02DX010 (sc), vehicle: steriod suspending solution.
Setting [5] is: endpoint: mean tumor weight, dose: 40.0 mg/kg/injection, schedule: Q01DX010 (ip), vehicle: saline.
The mark [6] stands for this setting: endpoint: mean tumor weight, dose: 12.5 mg/kg/injection, schedule: Q01DX010 (sc), vehicle: steriod suspending solution.
The mark [7] stands for this setting: endpoint: mean tumor weight, dose: 12.5 mg/kg/injection, schedule: Q01DX010 (ip), vehicle: saline.
[8] abbreviates: endpoint: mean tumor weight, dose: 25.0 mg/kg/injection, schedule: Q01DX010 (ip), vehicle: saline.
Setting [9] is: endpoint: mean tumor weight, dose: 50.0 mg/kg/injection, schedule: Q01DX010 (ip), vehicle: saline.
Where [10] appears, read: endpoint: mean tumor weight, dose: 100.0 mg/kg/injection, schedule: Q01DX010 (ip), vehicle: saline.
The mark [11] stands for this setting: endpoint: mean tumor weight, dose: 25.0 mg/kg/injection, schedule: Q01DX010 (sc), vehicle: steriod suspending solution.
The mark [12] stands for this setting: endpoint: mean tumor weight, dose: 0.5 mg/kg/injection, schedule: Q01DX010 (ip), vehicle: saline.
[13] abbreviates: endpoint: mean tumor weight, dose: 1.0 mg/kg/injection, schedule: Q01DX010 (ip), vehicle: saline.
Where [14] appears, read: endpoint: mean tumor weight, dose: 2.0 mg/kg/injection, schedule: Q01DX010 (ip), vehicle: saline.
Setting [15] is: endpoint: mean tumor weight, dose: 4.0 mg/kg/injection, schedule: Q01DX010 (ip), vehicle: saline.
Where [16] appears, read: endpoint: mean tumor weight, dose: 50.0 mg/kg/injection, schedule: Q01DX005 (sc), vehicle: steriod suspending solution.
The mark [17] stands for this setting: endpoint: mean tumor weight, dose: 50.0 mg/kg/injection, schedule: Q02DX010 (sc), vehicle: steriod suspending solution.
Setting [18] is: endpoint: mean tumor weight, dose: 100.0 mg/kg/injection, schedule: Q01DX005 (sc), vehicle: steriod suspending solution.
Where [19] appears, read: endpoint: mean tumor weight, dose: 100.0 mg/kg/injection, schedule: Q02DX010 (sc), vehicle: steriod suspending solution.

One may read the T/C as the ratio of treated to control. For the compound `C[C@@H]1C[C@H]2[C@@H]3CCC4=CC(=O)C=C[C@]4(C)[C@@]3(F)[C@@H](O)C[C@]2(C)[C@@]1(O)C(=O)CO`, the T/C was 55 % of control (endpoint: mean tumor weight (est.), dose: 3.13 mg/kg/injection, schedule: Q01DX016 (sc), vehicle: saline); 7 % of control (endpoint: mean tumor weight (est.), dose: 6.25 mg/kg/injection, schedule: Q01DX016 (sc), vehicle: saline); 33 % of control (endpoint: mean tumor weight, dose: 3.13 mg/kg/injection, schedule: Q01DX005 (sc), vehicle: steriod suspending solution); 5 % of control (endpoint: mean tumor weight, dose: 3.13 mg/kg/injection, schedule: Q01DX010 (sc), vehicle: steriod suspending solution); 8 % of control (endpoint: mean tumor weight, dose: 6.25 mg/kg/injection, schedule: Q01DX005 (sc), vehicle: steriod suspending solution); 116 % of control (endpoint: mean tumor weight, dose: 6.25 mg/kg/injection, schedule: Q02DX010 (sc), vehicle: steriod suspending solution). The T/C is, setting by setting: under setting [1], 4 % of control; under setting [2], 98 % of control; under setting [3], 1 % of control; under setting [4], 56 % of control.

`CC(=O)c1ccccc1C`: the T/C was 44 % of control (endpoint: mean tumor weight, dose: 18.0 mg/kg/injection, schedule: Q01DX010 (ip), vehicle: saline); 42 % of control (endpoint: mean tumor weight, dose: 27.0 mg/kg/injection, schedule: Q01DX010 (ip), vehicle: saline); 42 % of control under setting [5].

As for `C=CCOc1ccc2c(c1)CC[C@@H]1[C@@H]2CC[C@]2(C)[C@@H](O)[C@@H](O)C[C@@H]12`, the T/C (endpoint: mean tumor weight, dose: 6.25 mg/kg/injection, schedule: Q01DX010 (sc), vehicle: steriod suspending solution) is 98 % of control and 82 % of control; the T/C under setting [6] is 77 % of control and 88 % of control.

For `NCCCCC(N)C(=O)NCCCCCCNC(=O)CCCCC(=O)NCCCCCCNC(=O)C(N)CCCCN` (stereo not drawn), the T/C was 101 % of control under setting [7], 90 % of control under setting [8], 94 % of control under setting [9] and 110 % of control under setting [10].

In the case of `CC(=O)OC1C=CC(=O)OC1C1OC1C` (stereo not drawn), the T/C was 53 % of control (endpoint: mean tumor weight, dose: 4.0 mg/kg/injection, schedule: Q01DX011 (ip), vehicle: saline); 72 % of control (endpoint: mean tumor weight, dose: 6.0 mg/kg/injection, schedule: Q01DX011 (ip), vehicle: saline); 62 % of control (endpoint: mean tumor weight, dose: 9.0 mg/kg/injection, schedule: Q01DX011 (ip), vehicle: saline); 56 % of control (endpoint: mean tumor weight, dose: 13.0 mg/kg/injection, schedule: Q01DX011 (ip), vehicle: saline).

`COc1cc(-c2ccc(Nc3ccccc3C(=O)O)c(OC)c2)ccc1N`: the T/C reads like this: (endpoint: mean tumor weight, dose: 20.0 mg/kg/injection, schedule: Q01DX010 (ip), vehicle: saline) 82 % of control; under setting [5], 52 % of control.

As to `C[C@]12CC[C@@H]3c4ccc(O)cc4CC[C@H]3[C@@H]1CC(=O)[C@@H]2O`, the T/C under setting [6] was 94 % of control and 89 % of control; the T/C under setting [11] was 92 % of control and 96 % of control; the T/C (endpoint: mean tumor weight, dose: 50.0 mg/kg/injection, schedule: Q01DX010 (sc), vehicle: steriod suspending solution) was 78 % of control and 86 % of control.

Consider `Nc1nc(F)nc2c1ncn2C1OC(CO)C(O)C1O` (stereo not drawn), for which the T/C was 76 % of control under setting [12]; 94 % of control under setting [13]; 73 % of control under setting [14]; 62 % of control (endpoint: mean tumor weight, dose: 3.0 mg/kg/injection, schedule: Q01DX010 (ip), vehicle: saline); 35 % of control under setting [15].

For `CC(=O)O[C@]1(C(C)=O)CC[C@H]2[C@@H]3C[C@H](C)C4=CC(=O)C=C[C@]4(C)[C@@]3(F)[C@@H](O)C[C@@]21C`, the T/C by setting is: under setting [1], 32 % of control; under setting [6], 37 % of control and 39 % of control; under setting [3], 13 % of control; under setting [11], 15 % of control and 16 % of control and 36 % of control; under setting [4], 105 % of control; under setting [16], 1 % of control. In addition, the T/C was 101 % of control under setting [17], 3 % of control under setting [18] and 105 % of control under setting [19].

`N#Cc1cn(C2OC(CO)C(O)C2O)c2ncnc(N)c12` (stereo not drawn): the T/C was 86 % of control (endpoint: mean tumor weight, dose: 0.06 mg/kg/injection, schedule: Q01DX010 (ip), vehicle: saline); 61 % of control (endpoint: mean tumor weight, dose: 0.12 mg/kg/injection, schedule: Q01DX010 (ip), vehicle: saline); 69 % of control and 76 % of control (endpoint: mean tumor weight, dose: 0.25 mg/kg/injection, schedule: Q01DX010 (ip), vehicle: saline); 72 % of control under setting [12]; 68 % of control under setting [13]; 62 % of control under setting [14].

For the compound `O=C(NCCCC(NC(=O)OCc1ccccc1)C(=O)NCCCNCCCCNCCCNC(=O)C(CCCNC(=O)OCc1ccccc1)NC(=O)OCc1ccccc1)OCc1ccccc1` (stereo not drawn), the T/C was 156 % of control (endpoint: mean tumor weight, dose: 0.63 mg/kg/injection, schedule: Q01DX010 (ip), vehicle: saline); 91 % of control (endpoint: mean tumor weight, dose: 1.25 mg/kg/injection, schedule: Q01DX010 (ip), vehicle: saline); 111 % of control (endpoint: mean tumor weight, dose: 2.5 mg/kg/injection, schedule: Q01DX010 (ip), vehicle: saline).

With `CC(/C=N/N=C(N)N)=N\N=C(N)N`, the T/C is, setting by setting: (endpoint: mean tumor weight, dose: 15.0 mg/kg/injection, schedule: Q01DX010 (ip), vehicle: saline) 78 % of control; (endpoint: mean tumor weight, dose: 30.0 mg/kg/injection, schedule: Q01DX010 (ip), vehicle: saline) 87 % of control; (endpoint: mean tumor weight, dose: 60.0 mg/kg/injection, schedule: Q01DX010 (ip), vehicle: saline) 50 % of control.

As for `O=C(Nc1ccc(NC2=NCCN2)cc1)c1ccc(C(=O)Nc2ccc(NC3=NCCN3)cc2)cc1`, the T/C is, setting by setting: under setting [14], 78 % of control; under setting [15], 81 % of control; (endpoint: mean tumor weight, dose: 8.0 mg/kg/injection, schedule: Q01DX010 (ip), vehicle: saline) 36 % of control.

On to `C[C@]12CCC(=O)C=C1CC[C@@H]1[C@@H]2[C@@H](O)C[C@@]2(C)[C@H]1CC[C@]2(O)C(=O)CO`, for which the T/C by setting is: under setting [1], 51 % of control; under setting [2], 105 % of control; under setting [3], 15 % of control; under setting [4], 105 % of control; under setting [16], 7 % of control; under setting [17], 110 % of control. Besides, the T/C under setting [18] is 1 % of control.

For `CC(=O)[C@H]1CC[C@H]2[C@@H]3C[C@H](C)C4=CC(=O)CC[C@]4(C)[C@H]3C(=O)C[C@]12C`, the T/C was 89 % of control under setting [1]; 93 % of control and 95 % of control under setting [6]; 62 % of control under setting [3]; 92 % of control and 96 % of control under setting [11]; 41 % of control under setting [16]; 96 % of control under setting [17]. Further, the T/C reads like this: (endpoint: mean tumor weight, dose: 50.0 mg/kg/injection, schedule: Q03DX004 (sc), vehicle: steriod suspending solution) 43 % of control; (endpoint: mean tumor weight, dose: 75.0 mg/kg/injection, schedule: Q01DX010 (sc), vehicle: steriod suspending solution) 103 % of control; (endpoint: mean tumor weight, dose: 75.0 mg/kg/injection, schedule: Q02DX010 (sc), vehicle: steriod suspending solution) 89 % of control; under setting [18], 32 % of control; under setting [19], 93 % of control; (endpoint: mean tumor weight, dose: 100.0 mg/kg/injection, schedule: Q03DX004 (sc), vehicle: steriod suspending solution) 46 % of control. Also, the T/C (endpoint: mean tumor weight, dose: 200.0 mg/kg/injection, schedule: Q01DX010 (sc), vehicle: steriod suspending solution) was 22 % of control.

With `C[C@]12C=CC(=O)C=C1CC[C@@H]1[C@@H]2CC[C@]2(C)OC(=O)CC[C@@H]12`, the T/C is 107 % of control and 112 % of control under setting [6]; 101 % of control and 77 % of control under setting [11]; 111 % of control and 115 % of control (endpoint: mean tumor weight, dose: 100.0 mg/kg/injection, schedule: Q01DX010 (sc), vehicle: steriod suspending solution).

For `CCN(CC)CCCC(C)Nc1c2ccc(Cl)cc2nc2ccc(OC)cc12` (stereo not drawn), the T/C is, setting by setting: under setting [7], 103 % of control; under setting [8], 103 % of control and 88 % of control; under setting [9], 81 % of control and 85 % of control; under setting [10], 61 % of control and 64 % of control.

Take `CC(=O)NCCCCCCCCCCNC(C)=O`: the T/C under setting [9] was 96 % of control; the T/C under setting [10] is 113 % of control; the T/C (endpoint: mean tumor weight, dose: 200.0 mg/kg/injection, schedule: Q01DX010 (ip), vehicle: saline) is 93 % of control; the T/C (endpoint: mean tumor weight, dose: 400.0 mg/kg/injection, schedule: Q01DX010 (ip), vehicle: saline) is 76 % of control.

The values above are taken from PubChem BioAssay AID268 (DTP/NCI, 2004).
